Experiments:
[1] = tested on: hiPSC-derived endocrine progenitor cells; assay: Percentage of Neurogenin 3 protein expressing cells by flow cytometry; format: cell-based, human; details: three days; 400 nM (+)-JQ1 or 2000 nM IBET-151; three biological experiments
Protocol: (§1) Human induced pluripotent stem cells (iPSC) and human embryonic stem cells (ESC) were cultured on standard tissue culture plastic ware coated with hESC-qualified matrigel in mTeSR1™medium. Cells were passaged every three to four days as single cells using TrypLe Select. Rock inhibitor (5 μM) was included at the first day of passaging. Three different iPSC lines derived from a total of two individual donors and one ESC line were applied.
(§2) For differentiation, cells were seeded as single cells in mTeSR1 with 5 μM Rock inhibitor into tissue culture plates (Corning CellBind) at densities ranging between 300-400.000 cells/cm^2. Cells were cultured for 24 h at 37° C., 5% CO2. Following incubation, medium was aspirated and the cells were washed once in PBS before adding the differentiation medium. Differentiation was carried out essentially as described in Rezania et al. (Rezania et al., 2014b). The differentiation protocol is outlined in FIG. 2A. […]
(§3) Differentiation efficiency was analyzed by flow cytometry essentially as described in van de Bunt et al., 2016. […] Unconjugated antibodies were detected with fluorophore conjugated secondary antibodies.

[2] = tested on: hiPSC-derived pancreatic progenitors; assay: Viability and cell number by Nucleocounter after BET inhibitor treatment; format: cell-based, human; details: three day treatment, all tested concentrations, vs concentration matched DMSO
Protocol: as §1, §2
Viability of the cells and total number of cells was analyzed using a Nucleocounter NC3000 Cell analyzer (Chemometec).

[3] = tested on: hiPSC-derived endocrine progenitor cells; assay: Neurogenin 3 protein by immunofluorescence microscopy; format: cell-based, human; details: three days; 500 nM (+)-JQ1 or 2000 nM IBET-151; vs DMSO
Protocol: as §1, §2

[4] = tested on: mouse embryonic pancreatic buds; assay: NGN3 immunohistochemistry and count of positive nuclei in cultured mouse pancreatic buds; format: cell-based; details: five days culture; 0.5 μM IBET-151 or 0.1 μM (+)-JQ1; vs DMSO
Protocol: (§4) Mouse pancreatic buds were dissected from E11.5 C57Bl6/J embryos and placed at the air/medium interface on 0.45μm filters in culture dishes containing RPMI medium supplemented with 10% fetal calf serum, 1% penicillin-streptomycin, 1% non-essential amino acids and 10mM HEPES. Pancreatic buds were cultured at 37° C. with 5% CO2.
(§5) IBET-151 was obtained from Sigma-Aldrich and (+)/-JQ1 from Abcam. Stock solutions were prepared in DMSO. Inhibitors or DMSO (0.1% final concentration) were added to the culture medium which was changed daily.
Pancreatic buds were fixed in 3.7% formaldehyde, pre-embedded in agarose gel (4% of type VII low gelling temperature agarose (Sigma-Aldrich)) and embedded in paraffin. Sections (4 μm thick) were collected and processed for 3,3' diaminobenzidine immunohistological staining of NGN3, as previously described (Attali et al., 2007).
Photographs representative of a whole pancreas were taken using a transmitted light microscope (Leitz DMRB, Leica) and digitized using a Hammamatsu cooled 3CCCD camera. Total number of NGN3 positive nuclei per rudiment were then manually counted. Values represent the average of three experiments with standard deviation error bars. Statistical analysis was performed using unpaired Student t test.

[5] = tested on: genetically modified hESC line that express GFP under the control of the Neurogenin 3 promoter; assay: GFP reporter under Neurogenin 3 promoter in differentiated hESC line; format: cell-based, human; details: three days; 400 nM (+)-JQ1 or 2000 nM IBET-151; vs DMSO
Protocol: as §1, §2, §3

[6] = tested on: hiPSC-derived pancreatic progenitors; assay: Neurogenin 3 mRNA by qPCR in hiPSC-derived pancreatic progenitors differentiated towards endocrine lineage; format: cell-based, human; details: three days, six different concentrations
Protocol: as §1
as §2, with “medium.” for “medium. Differentiation was carried out essentially as described in Rezania et al. (Rezania et al., 2014b). The differentiation protocol is outlined in FIG. 2A.”
RNA was isolated from cells using NucleoSpin RNA/protein isolation kit (Macherey-Nagel). RNA was quantified using a nanodrop and […] RNA pr. sample was converted to cDNA using iScript reverse transcription kit (Bio-Rad). Gene expression was evaluated using Tagman gene expression assay for Neurogenin 3(Hs01875204, Applied Biosystems).
Neurogenin 3 transcripts were normalized to the average expression of two housekeeping genes (ACTB, Hs01060665_g1 and HPRT1, Hs99999909_m1, both from Applied Biosystems). Relative expression was calculated using the ΔΔCt method (FIGS. 2B and 2C).

[7] = tested on: mouse embryonic pancreatic buds; assay: RT-qPCR of Ngn3, Ins1, Ins2 and MafA in cultured mouse pancreatic buds; format: cell-based; details: for Ngn3 relative mRNA levels: 0.5 μM IBET-151 or 0.1 μM (+)-JQ1, vs DMSO
Protocol: as §4, §5
Total RNA from three or more pancreatic buds was extracted using Qiagen RNA extraction microkit and 250ng were reverse transcribed using maxima first strand cDNA synthesis kit from Thermo Fisher. Real-time PCR analysis of Ngn3, MafA and Cyclophylin A were performed in 1× Sybr Green Powermix in QuantStudio 3 Applied Biosystem system. Real-time PCR analysis of Ins1 and Ins2 were performed in 1× TaqMan Gene Expression Mastermix in a QuantStudio 3 Applied Biosystem system. Relative expression of Ngn3, MafA and Cyclophylin A were calculated using the comparative method of relative quantification (2^−ΔΔCT) normalized to cyclophilin A expression. Values represent the average of three experiments with standard deviation error bars. Statistical analysis was performed using unpaired Student t test.

[8] = 5 days with inhibitor (0.5 μM IBET-151 or 0.1 μM (+)-JQ1), then 9 additional days without inhibitor

`COc1cc2c(cc1-c1c(C)noc1C)ncc1[nH]c(=O)n([C@H](C)c3ccccn3)c12` [IBET-151] was tested, and the “number of cells expressing Neurogenin 3 protein relative to control treated cells” value [1] was “approximately 1.6 fold”, the “cell number compared to controls” value [2] was “No obvious difference” and the “viability compared to controls” value [2] was “No obvious difference”. For the same compound, the “number of cells positive for Neurogenin 3 protein” value [3] was “clear increase”, the “staining intensity of Neurogenin 3 in individual cells” value [3] was “stronger” and the “number of NGN3 positive nuclei” value [4] was “increased”. The “cells expressing GFP compared to the control” value [5] was “more cells expressing GFP”, the “Neurogenin 3 mRNA expression” value [6] was “dose-dependent increase” and the “concentration at which maximum Neurogenin 3 mRNA expression is achieved” value [6] was 2000 nM. It also gave an Ins1 expression increase [7, 8] of 3 fold, an Ins2 expression increase [7, 8] of 3 fold and a MafA expression increase [7, 8] of 10 folds. For the same compound, the “Ngn3 relative mRNA levels” value ([7]; after 3 days of treatment) was “strongly increased” and the “Ngn3 relative mRNA levels” value ([7]; after 7 days) was “remain increased”.
